{
  "source": "patent US9732320B2",
  "about": "“Selective differentiation, identification, and modulation of human TH17 cells” (THE BRIGHAM AND WOMEN'S HOSPITAL, INC., priority 2008, dated 2017)",
  "molecules": {"B1": {"name": "IL-23: cytokine, 25 ng/ml (protein, UniProt Q9NPF7 20-189; P29460 23-328, looked up)", "Interleukin-23 subunit alpha": "RAVPGGSSPAWTQCQQLSQKLCTLAWSAHPLVGHMDLREEGDEETTNDVPHIQCGDGCDPQGLRDNSQFCLQRIHQGLIFYEKLLGSDIFTGEPSLLPDSPVGQLHASLLGLSQLLQPEGHHWETQQIPSLSPSQPWQRLLLRFKILRSLQAFVAVAARVFAHGAATLSP", "Interleukin-12 subunit beta": "IWELKKDVYVVELDWYPDAPGEMVVLTCDTPEEDGITWTLDQSSEVLGSGKTLTIQVKEFGDAGQYTCHKGGEVLSHSLLLLHKKEDGIWSTDILKDQKEPKNKTFLRCEAKNYSGRFTCWWLTTISTDLTFSVKSSRGSSDPQGVTCGAATLSAERVRGDNKEYEYSVECQEDSACPAAEESLPIEVMVDAVHKLKYENYTSSFFIRDIIKPDPPKNLQLKPLKNSRQVEVSWEYPDTWSTPHSYFSLTFCVQVQGKSKREKKDRVFTDKTSATVICRKNASISVRAQDRYYSSSWSEWASVPCS"}},
  "key": {"TH17 cells": {"tested_on": "TH17 cells", "assay": "Chemotaxis chamber assay, TH17 cells", "assay_type": "cell-based", "protocol": "(§1) TH17 or TH1 cells alone or together with different concentrations of LTB4 inhibitor, U75-302, were added to the upper wells of chemotaxis chambers with 10^−8M of LTB4 in the lower wells. Cells were kept at 37° C. in 10% CO2 for 2 hr. Cells from the lower chamber were then stained with anti-CD4 antibody and stimulated for 4 hr with PMA/ionomycin in the presence of Golgi Stop. Cells were permeabilized and stained intracellularly for IL-17 or IFN-γ. The chemotactic index was calculated by dividing the number of CD4^+ IL-17^+ (for TH17 cells) or CD4^+ IFN-γ+ (for TH1 cells) migrated cells in LTB4-containing wells by the number of CD4^+ IL-17^+ (for TH17 cells) or CD4^+ IFN-γ+ (for Th1 cells) cells that migrated spontaneously to media alone."}, "BLT1": {"biological_target": "BLT1 (Homo sapiens, UniProt Q15722)", "sequence (Q15722 whole entry, species assumed)": "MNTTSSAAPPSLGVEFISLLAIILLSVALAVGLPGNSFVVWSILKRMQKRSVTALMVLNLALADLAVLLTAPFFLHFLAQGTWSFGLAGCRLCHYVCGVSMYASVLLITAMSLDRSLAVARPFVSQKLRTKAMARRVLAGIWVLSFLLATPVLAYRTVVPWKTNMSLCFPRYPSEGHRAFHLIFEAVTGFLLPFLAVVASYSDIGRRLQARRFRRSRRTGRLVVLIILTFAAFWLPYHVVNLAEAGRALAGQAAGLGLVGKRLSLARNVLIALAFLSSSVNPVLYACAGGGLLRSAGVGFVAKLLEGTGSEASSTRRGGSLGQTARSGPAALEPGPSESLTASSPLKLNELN", "settings": "Richards et al. 1989; cited from earlier work"}, "TH1 cells": {"tested_on": "TH1 cells", "assay": "Chemotaxis chamber assay, TH1 cells", "assay_type": "cell-based", "settings": "10^−8M of LTB4 in the lower wells, 2 hr", "protocol": "as §1"}, "human naïve CD4+ T cells": {"tested_on": "human naïve CD4+ T cells", "assay": "Differentiation assay: naïve CD4+ T cells stimulated with anti-CD3/anti-CD28 plus cytokines for seven days; ELISA and intracytoplasmic staining", "assay_type": "cell-based", "settings": "for IFN-β secretion from naïve T cells / IL-17A secretion from naïve CD4+ T cells: ELISA; for IL-17A secretion from naïve CD4+ T cells: serum-free medium", "from_the_text": "(§2) Error bars represent the standard deviation among three independent experiments using T cells from three unrelated subjects.\n(§3) PBMCs were obtained from the peripheral blood of healthy subjects or from cord blood (AllCells) in compliance with institutional IRB protocols. CD4+ T cells were subsequently isolated by negative selection using magnetic beads (Miltenyi Biotech Inc., Auburn, Calif.). Naïve (CD25^− CD62L^+ CD45RA^hi) and central memory (CD25^− CD62L^+ CD45RA^−) CD4^+ T cells were obtained by staining with the following antibodies: CD62L-FITC, CD4-PerCP, CD45RA-PE-Cy7, CD25-APC-Cy7 (BD Pharmingen, San Diego, Calif.) and were sorted on a FACS Aria (BD Biosciences, Palo Alto, Calif.).\n(§4) Naïve or central memory CD4^+ T cells were stimulated with plate-bound anti-CD3 and soluble CD28 monoclonal antibodies (1 μg/ml, each) in serum-free X-VIVO15 medium (Biowhittaker Inc., Walkersville, Md.) and cytokines (IL-6, 25 ng/ml; TGF-β, 5 ng/ml; IL-1β, 12.5 ng/ml; IL-21, 25 ng/ml; IL-23, 25 ng/ml) for a period of seven days, at which point supernatants were collected and tested by ELISA for IFN-β (BD Biosciences) or IL-17A (eBioscience, San Diego, Calif.) using paired antibodies. Intracytoplasmic staining was performed using standard methodologies and anti-IL-17-APC (R&D Systems, Minneapolis, Minn.) and anti-IFN-β-PE (BD Biosciences) antibodies."}, "[1]": {"tested_on": "human central memory CD4+ T cells", "assay": "Differentiation assay: central memory CD4+ T cells (TCM) stimulated with anti-CD3/anti-CD28 plus cytokines for seven days; ELISA", "assay_type": "cell-based", "from_the_text": "as §2, §3, §4"}, "naïve human CD4+ T cells": {"tested_on": "naïve human CD4+ T cells", "assay": "Quantitative RT-PCR of stimulated naïve CD4+ T cells from peripheral blood", "assay_type": "cell-based", "settings": "for IL-23 receptor up-regulation: stimulated naïve CD4+ T cells; for IL-22 mRNA: absence of exogenous IL-23", "protocol": "The mean fold-induction (relative to T cells stimulated in the absence of exogenous cytokines) and standard error among three independent experiments using T cells from three unrelated subjects are represented.\nas §4\nAll primers and probes were obtained from Applied Biosystems (Foster City, Calif.), and used according to standard methodologies."}, "naïve cord blood T cells": {"tested_on": "naïve cord blood T cells", "assay": "Quantitative RT-PCR of stimulated naïve CD4+ T cells from cord blood", "assay_type": "cell-based, human", "settings": "seven days", "protocol": "Sorted T cells were stimulated for seven days in the presence of the indicated cytokines, at which point RNA was collected and levels of IL-17A and RORC2 were measured by quantitative RT-PCR. Mean expression and standard error are reported based on three independent experiments using cord blood from three distinct donors.\nas §3\nNaïve or central memory CD4^+ T cells were stimulated with plate-bound anti-CD3 and soluble CD28 monoclonal antibodies (1 μg/ml, each) in serum-free X-VIVO15 medium (Biowhittaker Inc., Walkersville, Md.) and cytokines (IL-6, 25 ng/ml; TGF-β, 5 ng/ml; IL-1β, 12.5 ng/ml; IL-21, 25 ng/ml; IL-23, 25 ng/ml) for a period of seven days, at which point supernatants were collected and tested by ELISA for IFN-β (BD Biosciences) or IL-17A (eBioscience, San Diego, Calif.) using paired antibodies. […]"}},
  "data": [
    {"molecule": "CCCCC/C=C\\C[C@@H](O)/C=C/c1cccc(C[C@@H](O)CCCCO)n1", "note": "[U-75302, 6-(6-(3R-hydroxy-1E,5Z-undecadien-1-yl)-2-pyridinyl)-1,5S-hexandiol]", "values": [
      {"measurement": "Block of LTB4-induced migration of Th17 cells", "setting": "TH17 cells; different doses of antagonist in the upper wells", "value": "blocked in a dose dependant manner"},
      {"measurement": "Binding to BLT1", "setting": "BLT1", "value": "specifically binds BLT1"}
    ]},
    {"molecule": "CCCCC/C=C\\C[C@@H](O)/C=C/C=C/C=C\\[C@@H](O)CCCC(=O)O", "note": "[LTB4, Leukotriene B4]", "values": [
      {"measurement": "Migration (chemotaxis) of TH17 cells", "setting": "TH17 cells; 10^−8M of LTB4 in the lower wells, 2 hr", "value": "induced the selective migration"},
      {"measurement": "Migration (chemotaxis) of TH1 cells", "setting": "TH1 cells", "value": "not"}
    ]},
    {"molecule": "IL-6: cytokine, 25 ng/ml", "values": [
      {"measurement": "IFN-β secretion from naïve T cells", "setting": "human naïve CD4+ T cells", "value": "induced significant amounts of IFN-β secretion"},
      {"measurement": "IL-17A secretion from TCM", "setting": "[1]", "value": "little effect"},
      {"measurement": "Inhibition of the FoxP3 induction by TGF-β", "setting": "naïve human CD4+ T cells; cytokine added with TGF-β", "value": "inhibited"},
      {"measurement": "IL-23 receptor up-regulation", "setting": "naïve human CD4+ T cells", "value": "induced IL-23 receptor up-regulation"}
    ]},
    {"molecule": "IL-1β: cytokine, 12.5 ng/ml", "values": [
      {"measurement": "IFN-β secretion from naïve T cells", "setting": "human naïve CD4+ T cells", "value": "induced significant amounts of IFN-β secretion"},
      {"measurement": "IL-17A secretion from naïve CD4+ T cells", "setting": "human naïve CD4+ T cells", "value": "failed, however, to induce IL-17A secretion"},
      {"measurement": "IL-17A secretion from TCM", "setting": "[1]", "value": "induced the greatest amount of IL-17A secretion"},
      {"measurement": "IL-21 mRNA", "setting": "naïve human CD4+ T cells; naïve CD4+ T cells", "value": "induced even greater amounts of IL-21 mRNA"},
      {"measurement": "IL-23 receptor up-regulation", "setting": "naïve human CD4+ T cells", "value": "induced IL-23 receptor up-regulation"}
    ]},
    {"molecule": "TGF-β: cytokine, 5 ng/ml; doses from 1 ng/ml to 100 ng/ml examined", "values": [
      {"measurement": "TH17 differentiation from naïve CD4+ T cells", "setting": "human naïve CD4+ T cells", "value": "all differentiation/proliferation was suppressed"},
      {"measurement": "IL-21 mRNA", "setting": "naïve human CD4+ T cells; naïve CD4+ T cells", "value": "suppressed the expression of IL-21 and IL-22 mRNA induced by IL-21"},
      {"measurement": "IL-22 mRNA", "setting": "naïve human CD4+ T cells; naïve CD4+ T cells", "value": "suppressed the expression of IL-21 and IL-22 mRNA induced by IL-21"},
      {"measurement": "FoxP3 expression", "setting": "naïve human CD4+ T cells; naïve CD4+ T cells, seven days", "value": "induced"},
      {"measurement": "T-bet mRNA expression", "setting": "naïve human CD4+ T cells; naïve CD4+ T cells, seven days", "value": "suppresses the induction of T-bet by IL-21"},
      {"measurement": "IL-23 receptor up-regulation", "setting": "naïve human CD4+ T cells", "value": "not"}
    ]},
    {"molecule": "IL-21: cytokine, 25 ng/ml", "values": [
      {"measurement": "TH17 differentiation from naïve CD4+ T cells", "setting": "human naïve CD4+ T cells", "value": "does not induce human TH17 differentiation"},
      {"measurement": "IFN-β secretion from naïve T cells", "setting": "human naïve CD4+ T cells", "value": "induced significant amounts of IFN-β secretion"},
      {"measurement": "IL-17A secretion from naïve CD4+ T cells", "setting": "human naïve CD4+ T cells", "value": "unable to synergize with endogenous levels of TGF-β to promote IL-17 secretion"},
      {"measurement": "IL-21 mRNA", "setting": "naïve human CD4+ T cells; naïve CD4+ T cells", "value": "significantly up-regulated IL-21"},
      {"measurement": "IL-22 mRNA", "setting": "naïve human CD4+ T cells; naïve CD4+ T cells", "value": "induced IL-22 mRNA levels"},
      {"measurement": "IL-23 receptor up-regulation", "setting": "naïve human CD4+ T cells", "value": "induced IL-23 receptor up-regulation"},
      {"measurement": "RORC2 mRNA", "setting": "naïve cord blood T cells", "value": "modestly induced RORC2"}
    ]},
    {"molecule": "B1", "values": [
      {"measurement": "IL-17A secretion from TCM", "setting": "[1]", "value": "modestly enhance IL-17A secretion"}
    ]}
  ]
}
